Columns and labels:
SMARCA2-HiBiT = target: T1, SMARCA2-HiBiT (Homo sapiens, UniProt P51531); assay: SMARCA2 HiBiT degradation assay in HeLa cells; assay type: cell-based; conditions: 18 hours incubation; for DC50: read-out: HeLa_HiBit-SM2 DC50; for Dmax: HeLa, read-out: HeLa-HiBit-SM2 Dmax (%)
T1 construct: SMARCA2-HiBiT knock-in Hela monoclonal cell (CS302366); host or cells: HeLa monoclonal knock-in line (CRISPR HiBiT knock-in at the endogenous locus, heterozygous)
How it was run: (§1)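 HeLa monoclonal lines with heterozygous HiBiT knock-in were seeded at 2500 cells/well in EMEM with 10% FBS and treated with compound for 18 h at 37 °C. Remaining tagged protein was measured by Nano-Glo HiBiT lytic luminescence after 30–60 min at RT, and values came from curve fitting.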

SMARCA4-HiBiT = target: T2, SMARCA4-HiBiT (Homo sapiens, UniProt P51532); assay: SMARCA4 HiBiT degradation assay in HeLa cells; assay type: cell-based; conditions: 18 hours incubation; for DC50: read-out: HeLa-HiBit-SM4 DC50; for Dmax: HeLa, read-out: HeLa-HiBit-SM4 Dmax (%)
T2 construct: SMARCA4-HiBiT knock-in Hela monoclonal cell (CS3023226); host or cells: HeLa monoclonal knock-in line (CRISPR HiBiT knock-in at the endogenous locus, heterozygous)
How it was run: as §1

T1 sequence (P51531 whole entry): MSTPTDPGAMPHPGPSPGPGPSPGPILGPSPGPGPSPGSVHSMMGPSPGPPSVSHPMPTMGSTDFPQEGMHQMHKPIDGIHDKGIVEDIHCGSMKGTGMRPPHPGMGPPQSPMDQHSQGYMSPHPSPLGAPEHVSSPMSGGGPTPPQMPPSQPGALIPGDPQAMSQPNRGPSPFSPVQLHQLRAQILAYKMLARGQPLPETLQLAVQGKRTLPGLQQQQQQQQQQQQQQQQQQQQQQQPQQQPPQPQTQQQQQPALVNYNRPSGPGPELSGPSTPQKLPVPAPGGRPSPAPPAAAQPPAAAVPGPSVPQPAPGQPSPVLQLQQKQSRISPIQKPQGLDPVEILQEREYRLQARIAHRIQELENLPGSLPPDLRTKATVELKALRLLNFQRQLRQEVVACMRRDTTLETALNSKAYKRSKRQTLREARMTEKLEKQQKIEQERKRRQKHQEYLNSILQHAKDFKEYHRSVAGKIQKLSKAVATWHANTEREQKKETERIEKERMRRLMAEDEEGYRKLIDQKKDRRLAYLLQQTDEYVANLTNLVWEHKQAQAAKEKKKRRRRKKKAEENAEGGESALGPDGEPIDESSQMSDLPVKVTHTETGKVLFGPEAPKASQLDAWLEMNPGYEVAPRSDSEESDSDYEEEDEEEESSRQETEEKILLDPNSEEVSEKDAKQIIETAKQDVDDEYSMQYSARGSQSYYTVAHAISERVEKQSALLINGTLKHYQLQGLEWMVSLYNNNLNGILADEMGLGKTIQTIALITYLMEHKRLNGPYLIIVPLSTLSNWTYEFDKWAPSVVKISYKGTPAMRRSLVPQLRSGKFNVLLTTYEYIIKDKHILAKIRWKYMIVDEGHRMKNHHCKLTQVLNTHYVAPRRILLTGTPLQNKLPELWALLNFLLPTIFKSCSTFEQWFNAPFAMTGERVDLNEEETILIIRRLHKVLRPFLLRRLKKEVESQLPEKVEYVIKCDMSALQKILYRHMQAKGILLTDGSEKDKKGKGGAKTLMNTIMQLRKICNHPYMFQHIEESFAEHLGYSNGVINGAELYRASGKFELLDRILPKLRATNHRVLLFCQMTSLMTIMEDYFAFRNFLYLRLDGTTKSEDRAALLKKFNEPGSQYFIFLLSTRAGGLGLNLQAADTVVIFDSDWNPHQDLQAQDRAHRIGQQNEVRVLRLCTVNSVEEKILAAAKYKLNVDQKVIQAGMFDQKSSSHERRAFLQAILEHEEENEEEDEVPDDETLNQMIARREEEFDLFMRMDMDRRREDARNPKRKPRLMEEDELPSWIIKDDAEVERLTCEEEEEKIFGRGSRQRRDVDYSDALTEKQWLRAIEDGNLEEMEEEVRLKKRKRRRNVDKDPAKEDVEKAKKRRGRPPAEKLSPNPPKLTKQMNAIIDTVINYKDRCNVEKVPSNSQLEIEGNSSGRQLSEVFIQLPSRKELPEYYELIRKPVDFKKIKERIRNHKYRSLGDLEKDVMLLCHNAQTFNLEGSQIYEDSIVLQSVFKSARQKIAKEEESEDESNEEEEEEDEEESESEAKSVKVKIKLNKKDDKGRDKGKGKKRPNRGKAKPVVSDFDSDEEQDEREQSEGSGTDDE
T2 sequence (P51532 whole entry): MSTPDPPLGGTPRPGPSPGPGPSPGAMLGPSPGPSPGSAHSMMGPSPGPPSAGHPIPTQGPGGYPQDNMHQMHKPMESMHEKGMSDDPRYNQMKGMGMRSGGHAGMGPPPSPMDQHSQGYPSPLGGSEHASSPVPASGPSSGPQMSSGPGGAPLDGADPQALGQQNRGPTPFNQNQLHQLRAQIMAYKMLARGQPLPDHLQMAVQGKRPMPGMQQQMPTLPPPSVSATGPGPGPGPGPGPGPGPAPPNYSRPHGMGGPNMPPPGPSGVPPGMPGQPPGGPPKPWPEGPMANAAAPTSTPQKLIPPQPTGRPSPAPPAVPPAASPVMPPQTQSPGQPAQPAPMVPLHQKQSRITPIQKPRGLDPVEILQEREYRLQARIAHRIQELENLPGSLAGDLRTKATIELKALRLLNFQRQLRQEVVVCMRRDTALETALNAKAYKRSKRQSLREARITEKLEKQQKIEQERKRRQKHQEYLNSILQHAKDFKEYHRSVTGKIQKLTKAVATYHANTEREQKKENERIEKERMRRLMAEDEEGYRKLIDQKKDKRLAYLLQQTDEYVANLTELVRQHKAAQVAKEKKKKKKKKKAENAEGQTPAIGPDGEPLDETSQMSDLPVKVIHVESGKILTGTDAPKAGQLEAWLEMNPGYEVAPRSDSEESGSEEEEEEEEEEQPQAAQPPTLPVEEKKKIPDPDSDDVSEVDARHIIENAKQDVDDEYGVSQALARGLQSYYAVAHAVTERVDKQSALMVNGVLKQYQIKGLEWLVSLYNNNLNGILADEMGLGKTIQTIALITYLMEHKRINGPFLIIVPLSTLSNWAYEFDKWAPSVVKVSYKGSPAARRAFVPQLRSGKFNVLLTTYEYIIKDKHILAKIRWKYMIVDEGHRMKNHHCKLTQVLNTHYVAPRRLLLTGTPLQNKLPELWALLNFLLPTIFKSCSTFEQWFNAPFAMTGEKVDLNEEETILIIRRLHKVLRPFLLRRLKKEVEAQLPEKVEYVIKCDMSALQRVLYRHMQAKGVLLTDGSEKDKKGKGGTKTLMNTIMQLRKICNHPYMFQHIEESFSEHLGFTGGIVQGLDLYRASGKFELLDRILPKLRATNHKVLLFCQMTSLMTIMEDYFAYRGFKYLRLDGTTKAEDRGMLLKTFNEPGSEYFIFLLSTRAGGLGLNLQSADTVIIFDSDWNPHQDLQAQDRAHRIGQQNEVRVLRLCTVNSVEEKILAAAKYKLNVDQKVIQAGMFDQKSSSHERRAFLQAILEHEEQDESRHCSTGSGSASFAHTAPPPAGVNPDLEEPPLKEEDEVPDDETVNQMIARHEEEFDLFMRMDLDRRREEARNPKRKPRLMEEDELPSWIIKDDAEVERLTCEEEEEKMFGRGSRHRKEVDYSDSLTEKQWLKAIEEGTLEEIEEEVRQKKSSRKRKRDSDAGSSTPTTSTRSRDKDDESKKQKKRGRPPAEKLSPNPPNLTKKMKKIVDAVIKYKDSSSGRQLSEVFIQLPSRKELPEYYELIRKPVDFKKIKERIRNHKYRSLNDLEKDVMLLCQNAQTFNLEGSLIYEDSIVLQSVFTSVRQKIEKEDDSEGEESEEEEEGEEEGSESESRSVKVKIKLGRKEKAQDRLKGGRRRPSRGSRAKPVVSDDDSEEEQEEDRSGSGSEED

O=C1CCC(N2C(=O)c3cccc(N4CCC(CCCN5C6CCC5CC(N5CCN7c8cc(-c9ccccc9O)nnc8NC[C@H]7C5)C6)CC4)c3C2=O)C(=O)N1 (stereo partly drawn) [Example 125, 2-(2,6-dioxopiperidin-3-yl)-4-(4-(3-(3-((S)-2-(2-hydroxyphenyl)-5,6,6a,7,9,10-hexahydro-8H-pyrazino[1′,2′:4,5]pyrazino[2,3-c]pyridazin-8-yl)-8-azabicyclo[3.2.1]octan-8-yl)propyl)piperidin-1-yl)isoindoline-1,3-dione]
DC50 (SMARCA2-HiBiT): < 10 nM | Dmax (SMARCA2-HiBiT): 75 to 85% | DC50 (SMARCA4-HiBiT): < 10 nM | Dmax (SMARCA4-HiBiT): 75 to 85%

O=C1CCC(N2C(=O)c3ccc(N4CCN(CC5CCC(CN6CCN7c8cc(-c9ccccc9O)nnc8NC[C@H]7C6)CC5)CC4)cc3C2=O)C(=O)N1 (stereo partly drawn) [Example 168, 2-(2,6-dioxopiperidin-3-yl)-5-(4-((4-(((S)-2-(2-hydroxyphenyl)-5,6,6a,7,9,10-hexahydro-8H-pyrazino[1′,2′:4,5]pyrazino[2,3-c]pyridazin-8-yl)methyl)cyclohexyl)methyl)piperazin-1-yl)isoindoline-1,3-dione]
DC50 (SMARCA2-HiBiT): < 10 nM | Dmax (SMARCA2-HiBiT): > 85% | DC50 (SMARCA4-HiBiT): < 10 nM | Dmax (SMARCA4-HiBiT): 75 to 85%

C[C@H]1CN(CC2CCN(c3ccc4c(c3)C(=O)N(C3CCC(=O)NC3=O)C4)CC2)CCN1C(=O)N1CCN2c3cc(-c4ccccc4O)nnc3NC[C@H]2C1 (stereo partly drawn) [Example 112, 3-(6-(4-(((S)-4-((S)-2-(2-hydroxyphenyl)-6,6a,7,8,9,10-hexahydro-5H-pyrazino[1′,2′:4,5]pyrazino[2,3-c]pyridazine-8-carbonyl)-3-methylpiperazin-1-yl)methyl)piperidin-1-yl)-1-oxoisoindolin-2-yl)piperidine-2,6-dione]
DC50 (SMARCA2-HiBiT): < 10 nM | Dmax (SMARCA2-HiBiT): > 85% | DC50 (SMARCA4-HiBiT): < 10 nM | Dmax (SMARCA4-HiBiT): 75 to 85%

O=C1CCC(N2C(=O)c3ccc(N4CCC(CN5CCC(S(=O)(=O)N6CCN7c8cc(-c9ccccc9O)nnc8NC[C@H]7C6)CC5)CC4)cc3C2=O)C(=O)N1 (stereo partly drawn) [Example 137, 2-(2,6-dioxopiperidin-3-yl)-5-(4-((4-(((S)-2-(2-hydroxyphenyl)-5,6,6a,7,9,10-hexahydro-8H-pyrazino[1′,2′:4,5]pyrazino[2,3-c]pyridazin-8-yl)sulfonyl)piperidin-1-yl)methyl)piperidin-1-yl)isoindoline-1,3-dione]
DC50 (SMARCA2-HiBiT): < 10 nM | Dmax (SMARCA2-HiBiT): 50 to 75% | DC50 (SMARCA4-HiBiT): 10 to 100 nM | Dmax (SMARCA4-HiBiT): 50 to 75%

O=C1CCC(N2C(=O)c3ccc(N4CCC(NC5CCC(CN6CCN7c8cc(-c9ccccc9O)nnc8NC[C@H]7C6)CC5)CC4)cc3C2=O)C(=O)N1 (stereo partly drawn) [Example 163, 2-(2,6-dioxopiperidin-3-yl)-5-[4-[[4-[[(10S)-4-(2-hydroxyphenyl)-1,5,6,8,12-pentazatricyclo[8.4.0.02,7]tetradeca-2,4,6-trien-12-yl]methyl]cyclohexyl]amino]piperidin-1-yl]isoindole-1,3-dione]
DC50 (SMARCA2-HiBiT): < 10 nM | Dmax (SMARCA2-HiBiT): > 85% | DC50 (SMARCA4-HiBiT): < 10 nM | Dmax (SMARCA4-HiBiT): > 85%

O=C1CCC(N2C(=O)c3cccc(NCCCN4CCC(N5CCN6c7cc(-c8ccccc8O)nnc7NC[C@H]6C5)CC4)c3C2=O)C(=O)N1 (stereo partly drawn) [Example 70, 2-(2,6-dioxopiperidin-3-yl)-4-((3-(4-((S)-2-(2-hydroxyphenyl)-5,6,6a,7,9,10-hexahydro-8H-pyrazino[1′,2′:4,5]pyrazino[2,3-c]pyridazin-8-yl)piperidin-1-yl)propyl)amino)isoindoline-1,3-dione]
DC50 (SMARCA2-HiBiT): < 10 nM | Dmax (SMARCA2-HiBiT): > 85% | DC50 (SMARCA4-HiBiT): < 10 nM | Dmax (SMARCA4-HiBiT): > 85%

O=C1CCC(N2C(=O)c3cc(F)c(N4CCC(CN5C[C@@H]6[C@H](C5)[C@H]6CN5CCN6c7cc(-c8ccccc8O)nnc7NC[C@H]6C5)CC4)cc3C2=O)C(=O)N1 (stereo partly drawn) [Example 173, 2-(2,6-dioxopiperidin-3-yl)-5-fluoro-6-[4-[[(1S,5R)-6-[[(10S)-4-(2-hydroxyphenyl)-1,5,6,8,12-pentazatricyclo[8.4.0.02,7]tetradeca-2,4,6-trien-12-yl]methyl]-3-azabicyclo[3.1.0]hexan-3-yl]methyl]piperidin-1-yl]isoindole-1,3-dione]
DC50 (SMARCA2-HiBiT): < 10 nM | Dmax (SMARCA2-HiBiT): 75 to 85% | DC50 (SMARCA4-HiBiT): 10 to 100 nM | Dmax (SMARCA4-HiBiT): 50 to 75%

O=C1CCC(N2C(=O)c3ccc(N4CCOC(CN5C[C@@H]6[C@H](C5)[C@H]6CN5CCN6c7cc(-c8ccccc8O)nnc7NC[C@H]6C5)C4)cc3C2=O)C(=O)N1 (stereo partly drawn) [Example 49, 2-(2,6-dioxopiperidin-3-yl)-5-(2-(((1R,5S,6s)-6-(((S)-2-(2-hydroxyphenyl)-5,6,6a,7,9,10-hexahydro-8H-pyrazino[1′,2′:4,5]pyrazino[2,3-c]pyridazin-8-yl)methyl)-3-azabicyclo[3.1.0]hexan-3-yl)methyl)morpholino)isoindoline-1,3-dione]
DC50 (SMARCA2-HiBiT): < 10 nM | Dmax (SMARCA2-HiBiT): > 85% | DC50 (SMARCA4-HiBiT): < 10 nM | Dmax (SMARCA4-HiBiT): 75 to 85%

O=C1CCC(N2C(=O)c3ccc(N4CCOC(CN5CCN(C(=O)N6CCN7c8cc(-c9ccccc9O)nnc8NC[C@H]7C6)CC5)C4)cc3C2=O)C(=O)N1 (stereo partly drawn) [Example 117, 2-(2,6-dioxopiperidin-3-yl)-5-(2-((4-((S)-2-(2-hydroxyphenyl)-6,6a,7,8,9,10-hexahydro-5H-pyrazino[1′,2′:4,5]pyrazino[2,3-c]pyridazine-8-carbonyl)piperazin-1-yl)methyl)morpholino)isoindoline-1,3-dione]
DC50 (SMARCA2-HiBiT): < 10 nM | Dmax (SMARCA2-HiBiT): 75 to 85% | DC50 (SMARCA4-HiBiT): 10 to 100 nM | Dmax (SMARCA4-HiBiT): ≤ 50%

CC(C1CCN(c2ccc3c(c2)C(=O)N(C2CCC(=O)NC2=O)C3=O)CC1)N1CCC(CCCN2CCN3c4cc(-c5ccccc5O)nnc4NC[C@H]3C2)CC1 (stereo partly drawn) [Example 248, 2-(2,6-dioxopiperidin-3-yl)-5-(4-(1-(4-(3-((S)-2-(2-hydroxyphenyl)-5,6,6a,7,9,10-hexahydro-8H-pyrazino[1′,2′:4,5]pyrazino[2,3-c]pyridazin-8-yl)propyl)piperidin-1-yl)ethyl)piperidin-1-yl)isoindoline-1,3-dione]
DC50 (SMARCA2-HiBiT): < 10 nM | Dmax (SMARCA2-HiBiT): > 85% | DC50 (SMARCA4-HiBiT): < 10 nM | Dmax (SMARCA4-HiBiT): > 85%

O=C1CCC(N2Cc3ccc(C4CCN(CC5CCN(C(=O)N6CCN7c8cc(-c9ccccc9O)nnc8NC[C@H]7C6)CC5)CC4)cc3C2=O)C(=O)N1 (stereo partly drawn) [Example 143, 3-(6-(1-((1-((S)-2-(2-hydroxyphenyl)-6,6a,7,8,9,10-hexahydro-5H-pyrazino[1′,2′:4,5]pyrazino[2,3-c]pyridazine-8-carbonyl)piperidin-4-yl)methyl)piperidin-4-yl)-1-oxoisoindolin-2-yl) piperidine-2,6-dione]
DC50 (SMARCA2-HiBiT): < 10 nM | Dmax (SMARCA2-HiBiT): > 85% | DC50 (SMARCA4-HiBiT): 10 to 100 nM | Dmax (SMARCA4-HiBiT): 75 to 85%

O=C1CCC(N2Cc3ccc(N4CCC(CN5CCC(OC(=O)N6CCN7c8cc(-c9ccccc9O)nnc8NC[C@H]7C6)CC5)CC4)cc3C2=O)C(=O)N1 (stereo partly drawn) [Example 85, l-((l-(2-(2,6-dioxopiperidin-3-yl)-3-oxoisoindolin-5-yl)piperidin-4-yl)methyl)piperidin-4-yl (6aS)-2-(2-hydroxyphenyl)-5,6,6a,7,9,10-hexahydro-8H-pyrazino[1′,2′:4,5]pyrazino[2,3-c]pyridazine-8-carboxylate]
DC50 (SMARCA2-HiBiT): < 10 nM | Dmax (SMARCA2-HiBiT): > 85% | DC50 (SMARCA4-HiBiT): < 10 nM | Dmax (SMARCA4-HiBiT): 75 to 85%

From patent US12448389B2, “BRM targeting compounds and associated methods of use” (Prelude Therapeutics Incorporated, priority 2020, dated 2025)
